# From patent US12336982B2 (RODEO THERAPEUTICS CORPORATION, priority 2018, dated 2025)
# Molecular target: T1, recombinant 15-PGDH (Homo sapiens, UniProt P15428)
# T1 sequence (P15428 1-266): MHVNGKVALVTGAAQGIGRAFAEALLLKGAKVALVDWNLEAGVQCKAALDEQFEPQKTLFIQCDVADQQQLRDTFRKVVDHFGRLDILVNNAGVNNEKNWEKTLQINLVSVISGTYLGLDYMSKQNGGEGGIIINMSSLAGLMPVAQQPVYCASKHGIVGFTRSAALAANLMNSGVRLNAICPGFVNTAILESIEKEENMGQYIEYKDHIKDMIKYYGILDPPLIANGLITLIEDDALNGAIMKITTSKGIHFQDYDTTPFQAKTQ
# Format: biochemical
# Conditions: recombinant human 15-PGDH, in vitro; read-out: PDGH Assay-IC50
# Source text: The Recombinant 15-PGDH is human unless otherwise specified.
row,SMILES,IC50
1,COCCC[S+]([O-])c1sc2nc(-c3cncnc3)cc(-c3cccnn3)c2c1N (centres unmarked) [Example 236],< 2.5 nM
2,COCCC[S+]([O-])c1sc2nc(-c3cncnc3)cc(-c3ccncn3)c2c1N (centres unmarked) [Example 237],< 2.5 nM
3,COCCC[S@@+]([O-])c1sc2nc(-c3cncnc3)cc(-c3ccncn3)c2c1N [Example 238],< 2.5 nM
4,COCCC[S@+]([O-])c1sc2nc(-c3cncnc3)cc(-c3ccncn3)c2c1N [Example 239],≥ 10 nM
5,COCCC[S+]([O-])c1sc2nc(-c3cncnc3)cc(-c3ccnnc3)c2c1N (centres unmarked) [Example 240],2.5 to 10 nM
6,COCC[S+]([O-])c1sc2nc(-c3cnc4c(c3)CNC4=O)cc(-c3ccccc3)c2c1N (centres unmarked) [Example 241],< 2.5 nM
7,COCC[S@@+]([O-])c1sc2nc(-c3cnc4c(c3)CNC4=O)cc(-c3ccccc3)c2c1N [Example 242],< 2.5 nM
8,COCC[S@+]([O-])c1sc2nc(-c3cnc4c(c3)CNC4=O)cc(-c3ccccc3)c2c1N [Example 243],≥ 10 nM
9,COCC[S+]([O-])c1sc2nc(-c3cnc4c(c3)nnn4C)cc(C3CC3)c2c1N (centres unmarked) [Example 244],< 2.5 nM
10,Nc1c([S+]([O-])C2CCC2)sc2nc(-c3cnc(N4CC(O)C4)nc3)cc(-c3ccccc3)c12 (centres unmarked) [Example 248],< 2.5 nM
11,Nc1c([S+]([O-])C2CCC2)sc2nc(-c3cnc(N4CC(O)C4)nc3)cc(C3CC3)c12 (centres unmarked) [Example 250],< 2.5 nM
12,COCC[S+]([O-])c1sc2nc(-c3cncnc3)cc(C3CCC3)c2c1N (centres unmarked) [Example 251],< 2.5 nM
13,COCC[S@@+]([O-])c1sc2nc(-c3cncnc3)cc(C3CCC3)c2c1N [Example 252],< 2.5 nM
14,COCC[S@+]([O-])c1sc2nc(-c3cncnc3)cc(C3CCC3)c2c1N [Example 253],≥ 10 nM
15,COCCC[S+]([O-])c1sc2nc(-c3cncnc3)cc(C3CCC3)c2c1N (centres unmarked) [Example 254],< 2.5 nM
16,Nc1c([S+]([O-])C2CCC2)sc2nc(-c3cncnc3)cc(C3CCC3)c12 (centres unmarked) [Example 255],< 2.5 nM
17,COCC[S+]([O-])c1sc2nc(-c3cncnc3)cc(C34CC(C3)C4)c2c1N (centres unmarked) [Example 256],< 2.5 nM
18,Nc1c([S+]([O-])C2CCC2)sc2nc(-c3cncnc3)cc(C34CC(C3)C4)c12 (centres unmarked) [Example 257],< 2.5 nM

row,SMILES,IC50
1,COCCC[S+]([O-])c1sc2nc(-c3cnc4nn(C)cc4c3)cc(C3CCC3)c2c1N (centres unmarked) [Example 260],< 2.5 nM
2,COCCC[S@@+]([O-])c1sc2nc(-c3cnc4nn(C)cc4c3)cc(C3CCC3)c2c1N [Example 261],< 2.5 nM
3,COCCC[S@+]([O-])c1sc2nc(-c3cnc4nn(C)cc4c3)cc(C3CCC3)c2c1N [Example 262],≥ 10 nM
4,COCC[S+]([O-])c1sc2nc(-c3cnc4nn(CCO)cc4c3)cc(-c3ccccc3)c2c1N (centres unmarked) [Example 263],< 2.5 nM
5,COCC[S+]([O-])c1sc2nc(-c3cnc4nn(CCO)cc4c3)cc(C3CCC3)c2c1N (centres unmarked) [Example 266],< 2.5 nM
6,COCCC[S+]([O-])c1sc2nc(-c3cnc4nn(CCO)cc4c3)cc(-c3ccccc3)c2c1N (centres unmarked) [Example 269],< 2.5 nM
7,COCCC[S+]([O-])c1sc2nc(-c3cnc4nn(CCO)cc4c3)cc(C3CCC3)c2c1N (centres unmarked) [Example 270],< 2.5 nM
8,COCC[S+]([O-])c1sc2nc(-c3cnn(CCO)c3)cc(-c3ccccc3)c2c1N (centres unmarked) [Example 271],< 2.5 nM
9,Nc1c([S+]([O-])C2CCC2)sc2nc(-c3cnn(CCO)c3)cc(-c3ccccc3)c12 (centres unmarked) [Example 272],< 2.5 nM
10,COCCC[S+]([O-])c1sc2nc(-c3cnn(CCO)c3)cc(-c3ccccc3)c2c1N (centres unmarked) [Example 273],< 2.5 nM
11,COCCC[S+]([O-])c1sc2nc(-c3cnn(CCO)c3)cc(-c3ccccc3)c2c1N (centres unmarked) [Example 274],< 2.5 nM
12,COCC[S@@+]([O-])c1sc2nc(-c3cnn(C)c3)cc(C3CC3)c2c1N [Example 275],< 2.5 nM
13,COCC[S@+]([O-])c1sc2nc(-c3cnn(C)c3)cc(C3CC3)c2c1N [Example 276],≥ 10 nM
14,Cn1cc(-c2cc(C3CC3)c3c(N)c([S+]([O-])C4CCC4)sc3n2)cn1 (centres unmarked) [Example 277],< 2.5 nM
15,COCCC[S+]([O-])c1sc2nc(-c3cnn(C)c3)cc(C3CC3)c2c1N (centres unmarked) [Example 278],< 2.5 nM
16,Cn1cc(-c2cc(-c3cnc4nn(C)cc4c3)nc3sc([S+]([O-])C4CCC4)c(N)c23)cn1 (centres unmarked) [Example 279],2.5 to 10 nM
17,Cn1ccc(-c2cc(-c3cncnc3)nc3sc([S+]([O-])C4CCC4)c(N)c23)n1 (centres unmarked) [Example 280],< 2.5 nM
18,Cc1ncc(-c2cc(-c3cnn(C)c3)c3c(N)c([S+]([O-])C4CCC4)sc3n2)cn1 (centres unmarked) [Example 281],< 2.5 nM

# Other lines, results leading:
row,IC50,SMILES
1,< 2.5 nM,Cn1cc(-c2cc(-c3cncnc3)nc3sc([S+]([O-])C4CCC4)c(N)c23)cn1 (centres unmarked) [Example 282]
2,< 2.5 nM,Cn1cc2cc(-c3cc(-c4ccc(OCCO)cc4)c4c(N)c([S+]([O-])C5CCC5)sc4n3)cnc2n1 (centres unmarked) [Example 283]
3,< 2.5 nM,Cn1cc2cc(-c3cc(C4CC4)c4c(N)c([S+]([O-])C5CCC5)sc4n3)cnc2n1 (centres unmarked) [Example 286]
4,< 2.5 nM,Nc1c([S+]([O-])C2CCC2)sc2nc(-c3cncnc3)cc(-c3cnccn3)c12 (centres unmarked) [Example 289]
5,2.5 to 10 nM,COCCC[S+]([O-])c1sc2nc(-c3cnc(N4CC(O)C4)nc3)cc(-c3ccccc3)c2c1N (centres unmarked) [Example 290]
6,2.5 to 10 nM,COCC[S+]([O-])c1sc2nc(-c3cnc(N4CC(O)C4)nc3)cc(-c3ccccc3)c2c1N (centres unmarked) [Example 300]
7,2.5 to 10 nM,COCCC[S+]([O-])c1sc2nc(-c3cnc4c(cnn4CCO)c3)cc(-c3ccccc3)c2c1N (centres unmarked) [Example 301]
8,2.5 to 10 nM,COCCC[S+]([O-])c1sc2nc(-c3cnc4c(cnn4CCO)c3)cc(C3CC3)c2c1N (centres unmarked) [Example 302]
9,< 2.5 nM,COCCC[S+]([O-])c1sc2nc(-c3cnc4c(c3)CNC4=O)cc(-c3ccccc3)c2c1N (centres unmarked) [Example 303]
10,2.5 to 10 nM,Nc1c([S+]([O-])C2CCC2)sc2nc(-c3cnc4c(c3)CNC4=O)cc(-c3ncccn3)c12 (centres unmarked) [Example 304]
11,< 2.5 nM,Cn1nccc1-c1cc(-c2cnc3c(c2)CNC3=O)nc2sc([S+]([O-])C3CCC3)c(N)c12 (centres unmarked) [Example 305]
12,< 2.5 nM,Nc1c([S@+]([O-])C2CCC2)sc2nc(-c3cnc(NCCO)nc3)cc(C3CCC3)c12 [Example 306]
13,< 2.5 nM,Nc1c([S+]([O-])C2CCC2)sc2nc(-c3cncnc3)cc(-c3cc[nH]n3)c12 (centres unmarked) [Example 307]
14,< 2.5 nM,Nc1c([S+]([O-])C2CCC2)sc2nc(-c3cncnc3)cc(-c3ccon3)c12 (centres unmarked) [Example 308]
15,< 2.5 nM,Nc1c([S@+]([O-])C2CCC2)sc2nc(-c3cncnc3)cc(-c3ccon3)c12 [Example 309]
16,≥ 10 nM,Nc1c([S@@+]([O-])C2CCC2)sc2nc(-c3cncnc3)cc(-c3ccon3)c12 [Example 310]
17,< 2.5 nM,Nc1c([S+]([O-])C2CCC2)sc2nc(-c3cncnc3)cc(-c3ccno3)c12 (centres unmarked) [Example 311]
18,< 2.5 nM,Cn1nccc1-c1cc(-c2cnc(NCCO)nc2)nc2sc([S+]([O-])C3CCC3)c(N)c12 (centres unmarked) [Example 312]
19,< 2.5 nM,Cn1nccc1-c1cc(-c2cnc(NCCO)nc2)nc2sc([S@+]([O-])C3CCC3)c(N)c12 [Example 313]

row,IC50,SMILES
1,≥ 10 nM,Cn1nccc1-c1cc(-c2cnc(NCCO)nc2)nc2sc([S@@+]([O-])C3CCC3)c(N)c12 [Example 314]
2,2.5 to 10 nM,Cc1ncc(-c2cc(C3=CCNN3C)c3c(N)c([S+]([O-])C4CCC4)sc3n2)cn1 (centres unmarked) [Example 315]
3,2.5 to 10 nM,Cn1nccc1-c1cc(-c2ccc3c(=O)[nH]ccc3c2)nc2sc([S+]([O-])C3CCC3)c(N)c12 (centres unmarked) [Example 316]
4,< 2.5 nM,COCC[S+]([O-])c1sc2nc(-c3ccc4c(=O)[nH]ccc4c3)cc(-c3ccnn3C)c2c1N (centres unmarked) [Example 317]
5,< 2.5 nM,COCC[S+]([O-])c1sc2nc(-c3cnn4ccnc4c3)cc(-c3ccnn3C)c2c1N (centres unmarked) [Example 318]
6,< 2.5 nM,Cn1nccc1-c1cc(-c2cnn3ccnc3c2)nc2sc([S+]([O-])C3CCC3)c(N)c12 (centres unmarked) [Example 319]
7,< 2.5 nM,Cn1nccc1-c1cc(-c2cnc3nccn3c2)nc2sc([S+]([O-])C3CCC3)c(N)c12 (centres unmarked) [Example 320]
8,< 2.5 nM,COCC[S+]([O-])c1sc2nc(-c3cnc4c(c3)nnn4C)cc(-c3ccnn3C)c2c1N (centres unmarked) [Example 324]
9,< 2.5 nM,Cn1nccc1-c1cc(-c2cnc3c(c2)nnn3C)nc2sc([S+]([O-])C3CCC3)c(N)c12 (centres unmarked) [Example 325]
10,< 2.5 nM,Cn1nccc1-c1cc(-c2cnc3c(c2)nnn3C)nc2sc([S@+]([O-])C3CCC3)c(N)c12 [Example 326]
11,≥ 10 nM,Cn1nccc1-c1cc(-c2cnc3c(c2)nnn3C)nc2sc([S@@+]([O-])C3CCC3)c(N)c12 [Example 327]
12,< 2.5 nM,Nc1ncc(-c2cc(-c3ncccn3)c3c(N)c([S+]([O-])C4CCC4)sc3n2)cn1 (centres unmarked) [Example 328]
13,< 2.5 nM,CNc1ncc(-c2cc(-c3ncccn3)c3c(N)c([S+]([O-])C4CCC4)sc3n2)cn1 (centres unmarked) [Example 329]
14,< 2.5 nM,CNc1ncc(-c2cc(-c3ccnn3C)c3c(N)c([S+]([O-])CCOC)sc3n2)cn1 (centres unmarked) [Example 330]
15,< 2.5 nM,CNc1ncc(-c2cc(-c3ccnn3C)c3c(N)c([S@+]([O-])CCOC)sc3n2)cn1 [Example 331]
16,≥ 10 nM,CNc1ncc(-c2cc(-c3ccnn3C)c3c(N)c([S@@+]([O-])CCOC)sc3n2)cn1 [Example 332]
17,< 2.5 nM,Cn1cc2cc(-c3cc(-c4ccnn4C)c4c(N)c([S+]([O-])C5CCC5)sc4n3)cnc2n1 (centres unmarked) [Example 333]
18,< 2.5 nM,COCC[S+]([O-])c1sc2nc(-c3cnc4nn(C)cc4c3)cc(-c3ccnn3C)c2c1N (centres unmarked) [Example 334]
19,< 2.5 nM,COCC[S@@+]([O-])c1sc2nc(-c3cnc4nn(C)cc4c3)cc(-c3ccnn3C)c2c1N [Example 335]
